US8487091B2, “Substituted cyclopentanes having prostaglandin activity” (Allergan, Inc., priority 2008, dated 2013)
“And” between values parts separate entries of the source, which are not always exact repeats. Equal values may be shown once.

How the values were obtained:
EP2 [1] = molecular target: T1, EP2 (Homo sapiens, UniProt P43116); assay: EP2 cAMP functional assay; format: cell-based
Description: (§1) United States Patent Application Publication No. 20070129552, describes the methods used to obtain the in vitro data in Table 1 below. The part of that reference which describes the method is incorporated by reference herein.

EP2 [2] = molecular target: T1, EP2; assay: EP2 binding assay
Description: as §1

T1 sequence (P43116 whole entry): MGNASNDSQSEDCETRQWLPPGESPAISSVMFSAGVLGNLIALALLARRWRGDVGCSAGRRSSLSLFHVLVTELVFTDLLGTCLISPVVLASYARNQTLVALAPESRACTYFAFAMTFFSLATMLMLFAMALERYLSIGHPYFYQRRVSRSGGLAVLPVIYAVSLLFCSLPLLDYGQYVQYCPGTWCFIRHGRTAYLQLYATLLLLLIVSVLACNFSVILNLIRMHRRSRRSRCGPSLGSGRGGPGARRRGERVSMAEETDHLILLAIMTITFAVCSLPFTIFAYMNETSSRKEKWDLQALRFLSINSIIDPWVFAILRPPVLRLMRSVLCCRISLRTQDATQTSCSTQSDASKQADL

SMILES	EC50 (EP2 [1])	Ki (EP2 [2])
CCC1(C(O)C/C=C/C2=CCC[C@@H]2CCCc2ccc(C(=O)O)s2)CCC1 (stereo partly shown) [Compound 16]	32 nM	17 nM
CCC1(C(O)C/C=C/[C@@H]2[C@@H](CCCc3ccc(C(=O)O)s3)CC[C@@H]2C#N)CCC1 (stereo partly shown) [Compound 41]	129 nM	1390 nM
CCC1(C(O)C/C=C/[C@H]2C(=O)CC[C@@H]2CCCc2ccc(C(=O)O)s2)CCC1 (stereo partly shown) [Compound 12]	5.4 nM	86 nM
CCC1(C(O)C/C=C/[C@@H]2[C@@H](CCCc3ccc(C(=O)O)s3)CC[C@H]2F)CCC1 (stereo partly shown) [Compound 25]	5.7 nM	16 nM and 67 nM
CCC1(C(O)C/C=C/[C@@H]2[C@@H](CCCc3ccc(C(=O)O)s3)CC[C@@H]2Cl)CCC1 (stereo partly shown) [Compound 50]	117 nM	1170 nM
CCC1(C(O)C/C=C/[C@@H]2[C@@H](CCCc3ccc(C(=O)O)s3)CC[C@H]2Cl)CCC1 (stereo partly shown) [Compound 10]	17 nM and 7 nM	31 nM and 16 nM
CCC1(C(O)C/C=C/[C@@H]2[C@@H](CCCc3ccc(C(=O)O)s3)CC[C@@H]2F)CCC1 (stereo partly shown) [Compound 35]	23 nM	36 nM

Second part, the compound after the results:

EC50 (EP2 [1])	Ki (EP2 [2])	SMILES
11 nM	40 nM	CCC1(C(O)CCC[C@@H]2[C@@H](CCCc3ccc(C(=O)O)s3)CC[C@H]2Cl)CCC1 (stereo partly shown) [Compound 67]
19 nM	25 nM	CCC1(C(O)CCC[C@@H]2[C@@H](CCCc3ccc(C(=O)O)s3)CC[C@@H]2F)CCC1 (stereo partly shown) [Compound 37]
6.3 nM	137 nM	CCC1(C(O)CCC[C@H]2C(=O)CC[C@@H]2CCCc2ccc(C(=O)O)s2)CCC1 (stereo partly shown) [Compound 13]
8.5 nM	15 nM and 47 nM	CCC1(C(O)CCC[C@@H]2[C@@H](CCCc3ccc(C(=O)O)s3)CC[C@H]2F)CCC1 (stereo partly shown) [Compound 27]
18 nM	123 nM	CCC1(C(O)CCCC2C(C#N)CCC2CCCc2ccc(C(=O)O)s2)CCC1 (stereo not shown) [Compound 22]
54 nM	516 nM	CCC1(C(O)CCCC2C(C#N)CCC2CCCc2ccc(C(=O)O)s2)CCC1 (stereo not shown) [Compound 43]
114 nM	377 nM	CCC1(C(O)CCC[C@@H]2[C@@H](CCCc3ccc(C(=O)O)s3)CC[C@@H]2Cl)CCC1 (stereo partly shown) [Compound 51]
